Measured values published in patent publication US6930222B2, “In vivo animal model of human leukemia” (The Scripps Research Institute, priority 2000, dated 2005).

Test system: primary T-ALL obtained from patients
Assay: in vitro leukemia colony assay (methylcellulose, IL-2 and PMA)
Type: cell-based, human
Settings: 10 ng/ml
Description: To characterize the nature of the enhancing activity on leukemia engraftment, colony formation of leukemia clonogenic cells was examined in vitro in the presence of cord blood or cord blood derived mesenchymal stem cell conditioned medium. The in vitro leukemia colony assay is based on the ability of leukemic clonogenic cells to proliferate and form colonies in response to growth factors such as IL-2. These leukemic “progenitor” cells have been implicated in the maintenance and expansion of leukemic blast populations.
On microscopic analysis, there is a wide range of colony sizes in the samples to which conditioned medium was added. The colonies in the cultures were individually picked, pooled for similar sizes of colonies, and the number of leukemia cells counted.
Using this primary leukemia sample, leukemia colony forming assay with the addition of cord blood conditioned medium was performed. […] On day 14, leukemia colonies were individually picked. Approximately 1.4×10^6 cells were recovered, and these cells were pooled for flow cytometric analysis. The vast majority of cells are uniquely CD45^−CD7^+, CD45^−CD34^+, and CD7^+CD34^+. Collectively, the results are consistent with approximately 90% of the harvested cells from in vitro cultures having the surface phenotype CD45^−CD7^+CD34^+, identical to the atypical phenotype of the primary leukemia of this patient. […]

Substance: recombinant IL-15: potent immunoregulatory cytokine, also a T-cell growth factor
- stimulation of colony formation of primary leukemia: about 80%
